Data on 22 compounds can be found in PubChem BioAssay (NCI).

What all share (assay): NCI anticancer screen, dose series, 48 h
Experiment [1] relates to LOX IMVI melanoma.
Experiment [2] deals with SNB-78 CNS.
Experiment [3] relates to UACC-257 melanoma.
The subject of experiment [4] is HCT-15 colon.
For experiment [5], the system named is SF-295 CNS.
The test system of experiment [6] is KM12 colon.
In experiment [7] the test system is SN12C renal.
For experiment [8], the system named is KM20L2 colon.
For experiment [9], the system named is BT-549 breast.
Experiment [10] concerns T-47D breast.

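48-hour exposure; five concentrations; linearly interpolated endpoints. Here, GI50 denotes the concentration required for 50% inhibition of growth. At the TGI there is no net growth.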

Turning to `CC(C)=NNC(=S)NC12CC3CC(CC(C3)C1)C2`, the TGI in experiment [1], in experiment [2], in experiment [3], in [4], in experiment [5] and in experiment [6] was over 100 µM in each case. The TGI in experiment [7] and in experiment [8] was over 100 µM in each case.
With `O=[N+]([O-])C=C1c2ccccc2-c2ccccc21`, the TGI turned out to be 30.9 µM in experiment [1]; 31.1 µM in [2]; 33.7 µM in experiment [3]; 38.7 µM in [4]; 33.5 µM in experiment [5]; 31.7 µM in experiment [6]. Moreover, the results for the TGI in experiment [7] and in experiment [8] were 35.7 µM and 34.5 µM, respectively.
Regarding `O=C1C(=O)N(c2ccc(Cl)cc2)C(=O)C(=Nc2cccc3c(=O)[nH][nH]c(=O)c23)C1c1nc2ccccc2o1` (stereo unspecified), the TGI in experiment [1], in experiment [2], in experiment [3], in experiment [4], in experiment [5] and in experiment [6] was over 100 µM each time. The TGI in experiment [7] and in experiment [8] was over 100 µM in each case.
On to `Cc1ccc(C2=Nc3ccccc3S(=O)C(c3ccc4c(c3)OCO4)C2)cc1` (stereo unspecified), for which the TGI in experiment [1] is 29.8 µM; in experiment [2], 86.9 µM; in experiment [3], 88.4 µM; in experiment [5], over 100 µM; in experiment [6], 57.8 µM; in experiment [7] it was 33.5 µM. The same compound gave a TGI in experiment [8] of 33 µM.
As for `O=C(O)c1c2c(cc3c(=O)cc(-c4ccccc4)oc13)CCCC2`, the TGI in experiment [1], in experiment [2], in experiment [3], in [4], in experiment [5] and in [6] was over 100 µM in each case. Besides, the TGI in experiment [7] and in experiment [8] was over 100 µM throughout.
Take `COC(=O)C1[C@H](c2ccc3c(c2)OCO3)OC(=O)[C@]1(C(=O)OC)C(=O)c1ccc(OC)c(OC)c1` (stereo partly specified): the TGI was 36.1 µM in experiment [1]; over 100 µM in [2]; over 100 µM in [3]; over 100 µM in experiment [4]; over 100 µM in experiment [5]; over 100 µM in experiment [6]. Also, the TGI in experiment [7] and in [8] was over 100 µM each time.
Regarding `c1ccc2c(CNCCCCCCCCNCc3cccc4ccccc34)cccc2c1`, the TGI in [1] came out at 2.52 µM; in experiment [2] it was 4.45 µM; in [3], 3.29 µM; in experiment [4] it was 3.38 µM; in experiment [5], 3.32 µM; in [6], 3.24 µM. Besides, the TGI stood at 19.2 µM in experiment [7] and 3.22 µM in [8].
`Cc1ccc(C(=O)NCCN(C)C)c2nc3ccccc3cc12`: the TGI was 10.4 µM in experiment [1]; over 100 µM in experiment [2]; 6.01 µM in [3]; 6.5 µM in experiment [4]; 3.8 µM in experiment [5]; 6.91 µM in [6]. Also, the TGI in experiment [7] stood at 10.2 µM; in experiment [8], 6 µM.
Turning to `CN(/N=C\c1ccnc2ccccc12)c1ccccc1`, the TGI in experiment [1] was 32.3 µM; in experiment [2], over 100 µM; in [3], 42.6 µM; in experiment [4] it was 39.5 µM; in [5] it was 71.5 µM; in [6], 37.4 µM. Further, the TGI in [7] was over 100 µM.
In the case of `COC12OCCN(C)C1=CC(=O)C1(C)N=NCC12` (stereo unspecified), the TGI in experiment [1], in experiment [2], in [3], in experiment [4], in experiment [5] and in [6] was over 100 µM in each case. Also, in experiment [7], the TGI was over 100 µM.
`Cc1ccc(S(=O)(=O)OCCOCCOCCOCCOCCOS(=O)(=O)c2ccc(C)cc2)cc1`: the TGI was over 100 µM in experiment [1]; over 100 µM in experiment [2]; 77.8 µM in experiment [3]; over 100 µM in experiment [4]; over 100 µM in experiment [5]; over 100 µM in experiment [6]. For the same compound, the TGI in [7] and in [8] was over 100 µM in each case.
On to `COc1cc(O)c2c(c1)C(=O)C1=C(C2=O)C(O)C[C@@](C)(O)C1` (stereo partly specified), for which the TGI in experiment [1] is 1.68 µM; in [2], 4.67 µM; in [3], 1.24 µM; in [4], 3.61 µM; in experiment [5] it was 7.32 µM; in [6] it was 8.91 µM. Besides, the TGI turned out to be 2.65 µM in experiment [7] and 11.6 µM in experiment [8].
As for `CCOC(=O)CN(c1ccccc1)c1nc(=[N+](C)C)ss1`, the TGI in experiment [2] was over 100 µM; in experiment [3], 96 µM; in experiment [4], 56.5 µM; in [7], 36.7 µM; in experiment [8], over 100 µM.
`CCCCCCCCCCOC(=O)NCCC`: the TGI is 36.3 µM in experiment [1]; 92.8 µM in experiment [3]; 48.4 µM in experiment [4]; over 100 µM in experiment [5]; over 100 µM in experiment [6]; 86.3 µM in experiment [7]. The same compound came in with a TGI in experiment [8] of 62.2 µM.
Turning to `O=C(O)CN(c1ccc(F)cc1)S(=O)(=O)c1ccccc1`, the TGI in [1], in experiment [3], in [4], in experiment [5], in experiment [6] and in experiment [7] was over 100 µM throughout. In addition, the TGI in [8] is over 100 µM.
Take `Cc1cccc(Cl)c1NC(=O)c1cnc(Nc2cc(N3CCOCC3)cc(S(C)(=O)=O)c2)s1`: the GI50 in [1] was 0.0977 µM; in experiment [9] it was 9.75 µM; in experiment [3] it was over 4.82 µM; in experiment [4], 3 µM; in [5], over 4.23 µM; in experiment [6], over 10 µM. Further, the GI50 was 0.455 µM in experiment [7] and 0.292 µM in [10]. In addition, the TGI in experiment [1] is 0.938 µM; in experiment [9], over 10 µM; in experiment [3], over 10 µM; in experiment [4] it was over 10 µM; in experiment [5] it was over 10 µM; in experiment [6], over 10 µM. Moreover, the TGI in experiment [7] and in experiment [10] was over 10 µM in each case.
`CC1(C)CCC(C)(C)c2cc(NC(=O)c3ccc(C(=O)O)cc3)ccc21`: the TGI in experiment [1] is 48.3 µM; in experiment [9], 68.1 µM; in experiment [3], over 100 µM; in [4], over 64 µM; in experiment [5] it was 68.2 µM; in experiment [6] it was 59.5 µM. The values for the TGI in experiment [7] and in [10] were 93 µM and over 100 µM, respectively.
As to `COc1cc(CCNC(=O)OC(C)(C)C)c2c(c1OC)SSSSS2`, the GI50 was 2.79 µM in [1]; 2.54 µM in experiment [9]; 2.93 µM in [3]; 2.45 µM in experiment [4]; 2.76 µM in experiment [5]; 3.67 µM in [6]. The GI50 in [7] is 3.74 µM; in [10] it was 2.77 µM. For the same compound, the TGI in experiment [1] worked out at 6.75 µM; in experiment [9] it was 5.06 µM; in experiment [3] it was 5.48 µM; in [4], 5.78 µM; in experiment [5], 6.43 µM; in experiment [6], 12.2 µM. In addition, the TGI came out at 15.8 µM in [7] and 5.92 µM in experiment [10].
`Nc1nn(C(=O)Nc2c(F)cccc2F)c2ccccc12`: the GI50 in experiment [1] was 49.3 µM; in [9], 28.8 µM; in [3], 71.7 µM; in [4] it was 40.9 µM; in experiment [5], 54.8 µM; in experiment [6], 86.2 µM. Moreover, the GI50 was over 100 µM in experiment [7] and 68.7 µM in [10]. Further, the TGI in experiment [1], in experiment [9], in experiment [3], in experiment [4], in experiment [5] and in [6] was over 100 µM each time. Moreover, the TGI in experiment [7] and in experiment [10] was over 100 µM in each case.
Consider `O=C(c1ccccc1)c1nc2ccc(C(F)(F)F)cc2nc1N1CCN(c2ccccc2)CC1`, for which the GI50 in experiment [1] is 18.5 µM; in experiment [9], 32 µM; in [3] it was 94.9 µM; in [4] it was 20.5 µM; in experiment [5], 42.8 µM; in [6], 95.1 µM. Besides, the GI50 was 36.2 µM in experiment [7] and 21.8 µM in experiment [10]. For the same compound, the TGI is 38.4 µM in experiment [1]; 84.5 µM in experiment [9]; over 100 µM in experiment [3]; 50.1 µM in experiment [4]; over 100 µM in [5]; over 100 µM in [6]. In addition, the TGI in experiment [7] is over 100 µM; in [10], 48.9 µM.
With `CN(C)c1ccccc1[CH2][Ga]([Cl])[CH2]c1ccccc1N(C)C`, the GI50 is 1.13 µM in [1]; 1.83 µM in experiment [9]; 1.51 µM in experiment [3]; 0.698 µM in experiment [4]; 0.964 µM in experiment [5]; 0.635 µM in experiment [6]. The GI50 in experiment [7] was 1.31 µM; in experiment [10], 1.39 µM. For the same compound, the TGI in experiment [1] was 3.18 µM; in [9] it was 3.29 µM; in [3] it was 3.05 µM; in experiment [4], 2.33 µM; in experiment [5] it was 2.48 µM; in experiment [6], 2.24 µM. Moreover, the TGI was 2.58 µM in experiment [7] and 3.78 µM in experiment [10].
For `CC[PH+](CC)CC.CC[PH+](CC)CC.[Au]`, the GI50 in experiment [1] is 8.67 µM; in [2], 6.82 µM; in experiment [3], 11.4 µM; in experiment [4], 6.24 µM; in experiment [5] it was 13.5 µM; in [6] it was 16.3 µM. Besides, the values for the GI50 in experiment [7] and in [8] were 16.1 µM and 17.3 µM, respectively. Moreover, the TGI in experiment [1] came to 24.2 µM; in experiment [2] it was 53.1 µM; in [3] it was 24.4 µM; in experiment [4] it was 25.7 µM; in experiment [5], 26.9 µM; in [6], 33.3 µM. Besides, the TGI was 31.4 µM in experiment [7] and 33.3 µM in experiment [8].
